From US11993590B2, “Pyranone compounds useful to modulate OMA1 protease” (712 North Inc., priority 2016, dated 2024)
Where “and” joins values, the source holds several entries; their conditions need not be identical. Identical values can stand only once. Entries after “also recorded” stand apart in the source; their conditions may differ. Like-named read-outs stand apart in the source and are kept apart here.

What was measured:
OMA1 [1] = experiment: OMA1 antagonist test: CCCP-induced OPA1 cleavage in HEK293T cells, OPA1 Western blot; type: cell-based, human; settings: for proteolytic cleavage of large OPA1 isoforms upon CCCP: 2 hours before 10 μM CCCP for 30 min
Experimental: HEK293T cells were cultured and maintained in Dulbecco's Modified Eagle's Medium supplemented with 10% fetal bovine serum (FBS) and 2 mM […] in a 95% air-5% CO2 humidified atmosphere at 37° C. To test potential OMA1 antagonists, cells were seeded in 24-well plates and incubated over night to achieve around 90% confluency. For experiments the culture medium was replaced with Minimal Essential Medium and cells were pre-incubated with variable concentrations of the different test-compounds for 2 hours in a 95% air-5% CO2 humidified atmosphere at 37° C. After 2 hours, OMA1 protease was activated through the addition of carbonyl cyanide m-chlorophenyl hydrazone (CCCP; 10 μM final concentration) for 30 min in the presence of different concentrations of compounds to be tested. After 30 minutes, cells were immediately placed on ice, the medium removed, and cells harvested through addition of 100 μl RIPA buffer supplemented with protease inhibitor cocktail. Samples were separated on 8% tris-glycine gels and transferred onto nitro-cellulose membranes by Wester blotting. Membranes were immunolabeled with anti-OPA1 Antibodies (1:1,000) and with goat-anti-mouse Alkaline Phosphatase conjugated secondary antibodies (1:5,000). OPA1 protein was visualized with NBT/BCIP between 5 and 15 minutes before the reaction was stopped with an excess of distilled water.
CCCP is a potent mitochondrial oxidative phosphorylation uncoupler that activates OMA1 and creates conditions that allow OPA1 cleavage to occur.

OMA1 [2] = experiment: OPA1-Western blot of Hek293T cells incubated with tipranavir, OMA1 activated with CCCP or sorafenib; type: cell-based, human
Experimental: FIG. 28. […] OMA1 was activated with 3 μM CCCP for 30 minutes.
FIG. 29. Tipranavir can activate OMA1 at concentrations above 20 μM. […] OMA1 was then activated with 4 μM CCCP for 30 minutes in the indicated samples.
FIG. 30. […] OMA1 was then activated with either 3 μM CCCP or 30 μM sorafenib (SFB) for 30 minutes in the indicated samples.
Experimentally, OMA1 can be activated in cellular assays by the mitochondrial uncoupler [(3-chlorophenyl)hydrazono]propanedinitrile (CCCP).
Example 9. Tipranavir can activate OMA1 at concentrations above 20 μM. To further determine tipranavir's effect on OPA1, I incubated Hek293T cells for an hour with low doses of 0 μM, 20 μM and 40 μM tipranavir (FIG. 29).
Example 10. 100 μM tipranavir can inhibit OPA1 cleavage upon CCCP-treatment and upon sorafenib treatment. […] To investigate whether 100 μM tipranavir can inhibit CCCP-induced OPA1-cleavage or OPA1-cleavage induced by other agents as well, I incubated Hek293T cells for an hour with low doses of 0 μM, 50 μM or 100 μM tipranavir before activating OMA1 with either 3 μM CCCP or 30 μM sorafenib (see FIG. 30).

OMA1 [3] = experiment: OMA1 agonist test: CCCP threshold of OMA1 activation/OPA1 cleavage in HEK293T cells; type: cell-based, human
OMA1 [4] = experiment: OMA1 gene expression micro-arrays in rat brain; type: in vivo; settings: 10 exposures
Experimental: Rats were exposed to 1% Isoflurane for 90 minutes twice daily for a total of 5 or 10 exposures, after which animals were sacrificed and brain samples analyzed by gene expression micro-arrays (Pan et al. 2006).

OMA1 [5] = settings: 1% Isoflurane, 90 minutes twice daily, cited from earlier work
OMA1 [6] = settings: RS4.11 cells, 10 μM SB216763, 20 hours; cited from earlier work
OMA1 [7] = experiment: OMA1 gene expression microarray in RS4.11 MLL leukemia cells; type: cell-based, human; settings: RS4.11 cells, 10 μM SB216763, 20 hours
Experimental: Human MLL leukemia RS4.11 cells were cultured without or with 10 μM SB216763 for 20 hours (Wang et al. 2010). […] SB216763 is a kinase inhibitor and the finding that SB216763 can increase OMA1 levels was unexpected and is non-obvious to a person skilled in the arts. In context of the present invention SB216763 thus represents an agonist of OMA1 and/or an oligomeric complex comprising OMA1 as defined above. Accordingly, SB216763 represents a medical intervention in particular for the treatment, prevention and/or amelioration of a disorder or disease correlated with mitochondrial stress or dysfunction, a mitochondrial disorder or disease, or a disorder or disease characterized by OPA1 alterations.
Referring to FIG. 23, the GSK-3 inhibitor SB216763 (CAS #280744-09-4) represents an agonist of OMA1. […] RS4.11 cells were cultured for 20 hours without or with 10 μM SB216763, after which mRNA was isolated and analyzed by gene expression microarrays. Controls expressed OMA1 at 8.10 (±0.01 S.D.) and SB216763 treated cells expressed OMA1 at 8.7 (±0.18 S.D.).

OMA1 [8] = experiment: OMA1 gene expression microarray in KMH2 cells; type: cell-based, human; settings: 20 mM glucosamine, 24 hours
Experimental: Human malignant lymphocytes (KMH2 cells) were cultured without or with 20 mM glucosamine (Carvalho et al. 2014). After 24 hours mRNA was isolated and analyzed by gene expression microarrays. Controls expressed OMA1 at 7.31 (±0.08 S.D.) and glucosamine treated cells expressed OMA1 at 6.69 (±0.06 S.D.). Glucosamine is a dietary supplement and its effects on mitochondria are known to a person skilled in the arts (Carvalho et al. 2014; Bond and Hanover 2015; Tan et al. 2017). […] In context of the present invention glucosamine thus represents an antagonist of OMA1 and/or an oligomeric complex comprising OMA1 as defined above. Accordingly, glucosamine represents a medical intervention in particular for the treatment, prevention and/or amelioration of a disorder or disease correlated with mitochondrial stress or dysfunction, a mitochondrial disorder or disease, or a disorder or disease characterized by OPA1 alterations.
Referring to FIG. 21, the dietary supplement glucosamine (CAS #3416-24-8) represents an antagonist of OMA1. […] KMH2 cells were cultured for 24 hours without or with 20 mM glucosamine, after which mRNA was isolated and analyzed by gene expression microarrays. Controls expressed OMA1 at 7.31 (±0.08 S.D.) and glucosamine treated cells expressed OMA1 at 6.69 (±0.06 S.D.).

OMA1 [9] = settings: KMH2 cells, 20 mM glucosamine, 24 hours; cited from earlier work
OPA1 = settings: cells cultured with the compound; cited from earlier work

## CC(C)ON(CC(=O)NO)S(=O)(=O)c1ccc(-c2ccccc2)cc1 [ARP100]
OMA1 [1]; 70 μM
  proteolytic cleavage of large OPA1 isoforms upon CCCP: all OPA1 isoforms including the large OPA1-L1 and OPA1-L2 isoforms were readily detectable; also recorded: The large OPA1-L1 and OPA1-L2 isoforms were still readily detectable

## N#CC(C#N)=NNc1cccc(Cl)c1 [CCCP, carbonyl cyanide m-chlorophenyl hydrazone]
OMA1 [2]; 3 μM CCCP, 30 minutes
  L-OPA1 hydrolysis by CCCP alone: all L-OPA1 isoforms are hydrolyzed upon CCCP treatment
OMA1 [1]; 10 μM CCCP, 30 minutes
  OMA1 activation / OPA1 cleavage by CCCP alone: resulted in cleavage of both large OPA1-L1 and OPA1-L2 isoforms; also recorded: could activate OMA1, which resulted in the cleavage of the OPA1-L1 and OPA1-L2 isoforms
OMA1 [3]; 0 μM, 3 μM and 5 μM CCCP, untreated (vehicle-only) cells
  OPA1 processing by CCCP alone: had no effect on OPA1 processing in untreated cells
OMA1 [3]; 7 μM CCCP, untreated (vehicle-only) cells
  OPA1 cleavage / OMA1 activation by CCCP alone: OPA1 was cleaved only at the highest concentration of 7 μM CCCP; also recorded: OMA1 was activated at the highest concentration of 7 μM CCCP

## FC(F)OC(Cl)C(F)(F)F (stereo not shown) [Isoflurane]
OMA1 [4]
  increase of OMA1 gene expression in rat brain: 180% and 280%
OMA1 [5]; 5 exposures
  OMA1 expression level in rat brain: 19.1 (±3.4 S.D.)
OMA1 [5]; 10 exposures
  OMA1 expression level in rat brain: 29.3 (±6.3 S.D.)

## Cn1cc(C2=C(c3ccc(Cl)cc3Cl)C(=O)NC2=O)c2ccccc21 [SB216763]
OMA1 [6]
  OMA1 expression level: 8.7 (±0.18 S.D.)
OMA1 [7]
  increase of OMA1 gene expression levels: 7.6%

## O=S(=O)(CC1CS1)c1ccc(Oc2ccccc2)cc1 (stereo not shown) [SB-3CT]
OMA1 [3]; 100 μM SB-3CT, 0 μM CCCP
  OPA1 cleavage without CCCP: did not show OPA1 alterations; also recorded: did not induce OPA1 cleavage without CCCP
OMA1 [3]; 100 μM SB-3CT, 3 μM and 5 μM CCCP for 20 minutes
  OPA1 cleavage / OMA1 activation at low CCCP: caused OPA1 cleavage to occur already at 3 μM and 5 μM CCCP; also recorded: OMA1 was already activated at lower concentrations of 3 μM and 5 μM CCCP

## O=C(O)CNC(=O)C(CS)Cc1ccccc1 (stereo not shown) [Thiorphan]
OMA1 [1]; 100 μM
  proteolytic cleavage of large OPA1 isoforms upon CCCP: all OPA1 isoforms including the two large OPA1-L1 and OPA1-L2 isoforms were readily detectable; also recorded: The large OPA1-L1 and OPA1-L2 isoforms were still readily detectable

## N[C@H]1C(O)O[C@H](CO)[C@@H](O)[C@@H]1O (stereo partly shown) [glucosamine]
OMA1 [8]
  decrease of OMA1 gene expression levels: 8.5%
OMA1 [9]
  OMA1 expression level: 6.69 (±0.06 S.D.)

## c1cnc2c(c1)ccc1cccnc12 [phenanthroline]
OPA1
  OPA1 levels and OPA1L/OPA1S isoforms: an increase in the OPA1L isoform
OMA1 [1]; 500 μM
  proteolytic cleavage of large OPA1 isoforms upon CCCP: The large OPA1-L1 and OPA1-L2 isoforms were still readily detectable; also recorded: inhibited proteolytic cleavage of OPA1 by OMA1

## CNC(=O)c1cc(Oc2ccc(NC(=O)Nc3ccc(Cl)c(C(F)(F)F)c3)cc2)ccn1 [sorafenib]
OMA1 [2]; 30 μM sorafenib, 30 minutes
  OMA1 activation / OPA1 cleavage by sorafenib alone: activate OMA1 and lead to OPA1 cleavage similar to CCCP

## CCC[C@@]1(CCc2ccccc2)CC(O)=C([C@H](CC)c2cccc(NS(=O)(=O)c3ccc(C(F)(F)F)cn3)c2)C(=O)O1 [tipranavir]
OMA1 [2]; Hek293T cells, 1 hour
  concentration at which tipranavir can activate OMA1: above 20 μM
